Results: article doi:10.1101/2025.06.19.660642, “Discovery of orally bioavailable Zika and West Nile Virus antiviral compounds targeting the NS2B-NS3 protease” (bioRxiv, 2025)
Read-outs that look alike come from different tables or passages of the source.

What was measured:
ZIKV NS2B-NS3 protease = molecular target: T1, ZIKV NS2B-NS3 protease (Zika virus, UniProt A0A024B7W1); assay: ZIKV NS2B-NS3 protease biochemical FRET assay; conditions: for Ligand efficiency (LE): Ligand efficiency = pKi / heavy atom count
T1 construct: directed at the co-expressed ZIKV NS2B-NS3 protease

MDR1-MDCK permeability = assay type: in vitro ADME; conditions: dog; for Papp A→B: MDCK-MDR1, A→B; for Papp B→A: MDCK-MDR1, B→A
Procedure: (§1) Figure 5. (A) Further characterization of ASAP-0027808. Papp was determined in MDR1-MDCK cells. Antiviral assays were performed in Vero E6 cells in a 7-day infection using 0.5 uM CP100356 as a P-gp inhibitor (see Supporting Information for more details). (B) The compound was successfully crystallized with ZIKV NS2B-NS3. ASAP-0016806 and ASAP-0027808 both appear to interact with the same residues (catalytic triad His51/Asp75/Ser135 colored yellow, other key residues Tyr161, NS2B Ser81, and NS2B Asp83 colored green). (C) Dose-dependent suppression of ZIKV-induced cytopathy in VeroE6 cells (n=2); no changes to cell viability of uninfected cells treated with the inhibitor was observed. Cells were co-treated with 0.5 μM CP100356 (as P-gp inhibitor). TEXT PRINTED IN THE PICTURE: (A) ASAP-0027808: ZIKV NS2B-NS3 Ki (μM): 0.090; ZIKV EC50 / CC50 (μM): 4.6 / >50; WNV NS2B-NS3 Ki (μM): 2.9; MW (g/mol): 313; CLint,app, HLM (μL/min/mg): < 10; MDR1-MDCK Papp A→B, B→A (10^-6 cm/sec): 2.0 ,11.0; Kinetic solubility (pH 7.4, μM): 279; LogD: 0.9

[1] = Microsomal clearance, HLM; conditions: human, microsomes
WNV NS2B-NS3 protease = molecular target: T2, WNV NS2B-NS3 protease (West Nile virus, UniProt P06935); assay: WNV NS2B-NS3 protease biochemical inhibition
T2 construct: some activity against the WNV NS2B-NS3 protease

Kinetic solubility = conditions: pH 7.4
urokinase = molecular target: T3, urokinase (Homo sapiens, UniProt P00749); assay: Eurofins human protease selectivity panel; assay type: biochemical; conditions: read-out: inhibitory activity against urokinase
T3 construct: Eurofins
Source text: Upon crystallization in the active site of ZIKV NS2B-NS3, we noted the compound participating with most of the same residues as ASAP-0016806 (Figure 5B): an aromatic interaction with Tyr161, a hydrogen-bonding interaction with Gly151, an aromatic interaction with His51, and an electrostatic interaction with Asp83 (with a possible additional hydrogen bonding interaction to Ser81).

Vero E6 cells = assay: Cytotoxicity in uninfected Vero E6 cells; assay type: cell-based; conditions: Vero E6 cells treated with a P-gp inhibitor, up to 50 μM
Procedure: as §1

[2] = Cytotoxicity in uninfected Vero E6 cells; assay type: cell-based; conditions: African green monkey; Vero E6 cells, 0.5 uM CP100356 as P-gp inhibitor; read-out: CC50
Procedure: as §1

ZIKV = ZIKV antiviral assay (virus-induced cytopathy) in Vero E6 cells with P-gp inhibitor; assay type: cell-based; conditions: Zika virus, Vero C1008, 168 h, read-out: ZIKV EC50
Procedure: as §1

[3] = library 1, supplement, read-out: ZIKV NS2B-NS3 Ki
[4] = ZIKV NS2B-NS3 Ki (uM), library 1, supplement

T2 sequence (P06935 1424-1463): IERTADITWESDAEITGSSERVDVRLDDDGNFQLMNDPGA
T2 sequence (P06935 1502-1679): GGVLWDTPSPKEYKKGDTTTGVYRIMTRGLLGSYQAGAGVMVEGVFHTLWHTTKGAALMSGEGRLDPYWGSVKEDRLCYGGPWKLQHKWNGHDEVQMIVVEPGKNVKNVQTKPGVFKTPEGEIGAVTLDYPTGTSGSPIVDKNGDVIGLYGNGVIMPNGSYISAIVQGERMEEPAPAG
T1 sequence (A0A024B7W1 1503-1680): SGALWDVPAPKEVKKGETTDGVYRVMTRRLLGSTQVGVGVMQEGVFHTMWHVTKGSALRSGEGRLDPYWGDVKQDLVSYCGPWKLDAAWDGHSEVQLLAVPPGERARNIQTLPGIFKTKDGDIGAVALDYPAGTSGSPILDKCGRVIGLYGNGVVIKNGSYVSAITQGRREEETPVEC
T1 sequence (A0A024B7W1 1425-1464): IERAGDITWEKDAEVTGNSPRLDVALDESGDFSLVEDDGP

NCc1ccc(F)c(NC(=O)c2cc(Cl)cc(NC(=O)OCc3ccccc3)c2)c1 [ASAP-0021403, NCc1ccc(F)c(NC(=O)c2cc(Cl)cc(NC(=O)OCc3ccccc3)c2)c1]
Ki (ZIKV NS2B-NS3 protease; ZIKV NS2B-NS3 pKi, library 1, supplement): 3.89 µM

O=C(Nc1cc(Cl)cc(C(=O)NC[C@H]2CNC3(CC3)CO2)c1)OCc1ccccc1 [ASAP-0021445, O=C(Nc1cc(Cl)cc(C(=O)NC[C@H]2CNC3(CC3)CO2)c1)OCc1ccccc1 ¦&1:13¦]
ZIKV NS2B-NS3 pKi (ZIKV NS2B-NS3 protease; library 1, supplement): < 4.05 | Ki (ZIKV NS2B-NS3 protease; [3]): > 89.3 µM

O=C(Nc1cc(Cl)cc(C(=O)NC2([C@H]3CCNC3)CC2)c1)OCc1ccccc1 [ASAP-0021452, O=C(Nc1cc(Cl)cc(C(=O)NC2([C@H]3CCNC3)CC2)c1)OCc1ccccc1 ¦&1:13¦]
ZIKV NS2B-NS3 pKi (ZIKV NS2B-NS3 protease; library 1, supplement): < 4.05 | Ki (ZIKV NS2B-NS3 protease; [3]): > 89.3 µM

NC[C@]1(F)C[C@@H](NC(=O)c2cc(Cl)cc(NC(=O)OCc3ccccc3)c2)C1 [ASAP-0021480, NC[C@]1(F)C[C@@H](NC(=O)c2cc(Cl)cc(NC(=O)OCc3ccccc3)c2)C1]
Ki (ZIKV NS2B-NS3 protease; [4]): 61.6 µM

C=CC[C@@]1(NC(=O)c2cc(Cl)cc(NC(=O)OCc3ccccc3)c2)CCNC1 [ASAP-0021490, C=CC[C@@]1(NC(=O)c2cc(Cl)cc(NC(=O)OCc3ccccc3)c2)CCNC1 ¦&1:3¦]
ZIKV NS2B-NS3 pKi (ZIKV NS2B-NS3 protease; library 1, supplement): < 4.05 | Ki (ZIKV NS2B-NS3 protease; [3]): > 89.3 µM

O=C(Nc1cc(Cl)cc(C(=O)NC[C@@H]2CNCCC2(F)F)c1)OCc1ccccc1 [ASAP-0021511, O=C(Nc1cc(Cl)cc(C(=O)NC[C@@H]2CNCCC2(F)F)c1)OCc1ccccc1 ¦&1:13¦]
ZIKV NS2B-NS3 pKi (ZIKV NS2B-NS3 protease; library 1, supplement): < 4.05 | Ki (ZIKV NS2B-NS3 protease; [3]): > 89.3 µM

O=C(Nc1cc(Cl)cc(C(=O)Nc2ccc3c(c2)CNCCO3)c1)OCc1ccccc1 [ASAP-0021552, O=C(Nc1cc(Cl)cc(C(=O)Nc2ccc3c(c2)CNCCO3)c1)OCc1ccccc1]
Ki (ZIKV NS2B-NS3 protease; [4]): 6.9 µM

O=C(Nc1cc(Cl)cc(C(=O)Nc2nccn2C2CNC2)c1)OCc1ccccc1 [ASAP-0021559, O=C(Nc1cc(Cl)cc(C(=O)Nc2nccn2C2CNC2)c1)OCc1ccccc1]
Ki (ZIKV NS2B-NS3 protease; [4]): > 89.3 µM

O=C(Nc1cc(Cl)cc(C(=O)Nc2ncc(C3CNC3)s2)c1)OCc1ccccc1 [ASAP-0021562, O=C(NC1=CC(Cl)=CC(C(=O)NC2=NC=C(C3CNC3)S2)=C1)OCC1=CC=CC=C1]
Ki (ZIKV NS2B-NS3 protease; [4]): > 89.3 µM

O=C(Nc1cc(Cl)cc(C(=O)NC[C@@H]2CC3(CNC3)CO2)c1)OCc1ccccc1 [ASAP-0021589, O=C(Nc1cc(Cl)cc(C(=O)NC[C@@H]2CC3(CNC3)CO2)c1)OCc1ccccc1 ¦&1:13¦]
ZIKV NS2B-NS3 pKi (ZIKV NS2B-NS3 protease; library 1, supplement): 4.38 | Ki (ZIKV NS2B-NS3 protease; [3]): 41.3 µM

O=C(Nc1cc(Cl)cc(C(=O)Nc2ccnc(OC3CNC3)c2)c1)OCc1ccccc1 [ASAP-0021594, O=C(Nc1cc(Cl)cc(C(=O)Nc2ccnc(OC3CNC3)c2)c1)OCc1ccccc1]
Ki (ZIKV NS2B-NS3 protease; [4]): 59.3 µM

NCC12CC(NC(=O)c3cc(Cl)cc(NC(=O)OCc4ccccc4)c3)(CCO1)C2 [ASAP-0021607, NCC12CC(NC(=O)c3cc(Cl)cc(NC(=O)OCc4ccccc4)c3)(CCO1)C2]
Ki (ZIKV NS2B-NS3 protease; [4]): > 89.3 µM

CNCc1cccc(NC(=O)c2cc(Cl)cc(NC(=O)OCc3ccccc3)c2)c1 [ASAP-0021616, CNCc1cccc(NC(=O)c2cc(Cl)cc(NC(=O)OCc3ccccc3)c2)c1]
Ki (ZIKV NS2B-NS3 protease; [4]): 17.6 µM

C[C@]1(CNC(=O)c2cc(Cl)cc(NC(=O)OCc3ccccc3)c2)CNCCOC1 [ASAP-0021641, C[C@]1(CNC(=O)c2cc(Cl)cc(NC(=O)OCc3ccccc3)c2)CNCCOC1 ¦&1:1¦]
ZIKV NS2B-NS3 pKi (ZIKV NS2B-NS3 protease; library 1, supplement): < 4.05 | Ki (ZIKV NS2B-NS3 protease; [3]): > 89.3 µM

C[C@@H](N)c1cccc(NC(=O)c2cc(Cl)cc(NC(=O)OCc3ccccc3)c2)c1 [ASAP-0021650, C[C@@H](N)c1cccc(NC(=O)c2cc(Cl)cc(NC(=O)OCc3ccccc3)c2)c1]
Ki (ZIKV NS2B-NS3 protease; [4]): 20.4 µM

NCc1cc(F)cc(NC(=O)c2cc(Cl)cc(NC(=O)OCc3ccccc3)c2)c1 [ASAP-0021659, NCc1cc(F)cc(NC(=O)c2cc(Cl)cc(NC(=O)OCc3ccccc3)c2)c1]
Ki (ZIKV NS2B-NS3 protease; [4]): 5.26 µM

NC[C@H]1C[C@@H](CNC(=O)c2cc(Cl)cc(NC(=O)OCc3ccccc3)c2)CCO1 [ASAP-0021664, NC[C@H]1C[C@@H](CNC(=O)c2cc(Cl)cc(NC(=O)OCc3ccccc3)c2)CCO1 ¦&1:2,&2:4¦]
ZIKV NS2B-NS3 pKi (ZIKV NS2B-NS3 protease; library 1, supplement): < 4.05 | Ki (ZIKV NS2B-NS3 protease; [3]): > 89.3 µM

NCc1ccc(CNC(=O)c2cc(Cl)cc(NC(=O)OCc3ccccc3)c2)c(F)c1 [ASAP-0021676, NCc1ccc(CNC(=O)c2cc(Cl)cc(NC(=O)OCc3ccccc3)c2)c(F)c1]
Ki (ZIKV NS2B-NS3 protease; [4]): 29.5 µM

O=C(Nc1cc(Cl)cc(C(=O)NCCC2COCCN2)c1)OCc1ccccc1 (stereo not shown) [ASAP-0022490, O=C(NC1=CC(Cl)=CC(C(=O)NCC[C@H]2COCCN2)=C1)OCC1=CC=CC=C1 ¦&1:14¦]
Ki (ZIKV NS2B-NS3 protease; [4]): > 89.3 µM

NCc1cccc(NC(=O)c2cc(Cl)cc3[nH]ncc23)c1 [ASAP-0023261]
Ligand efficiency (LE) (ZIKV NS2B-NS3 protease): 0.407 | Ki (ZIKV NS2B-NS3 protease; ZIKV NS2B-NS3 Ki): 0.796 µM

O=C(Nc1ccc2c(c1)CNC2)c1cc(Cl)cc2[nH]ncc12 [ASAP-0027808]
Papp A→B (MDR1-MDCK permeability): 2 ×10⁻⁶ cm/s | Papp B→A (MDR1-MDCK permeability): 11 ×10⁻⁶ cm/s | Ligand efficiency (LE) (ZIKV NS2B-NS3 protease): 0.452 | Ki (ZIKV NS2B-NS3 protease; ZIKV NS2B-NS3 Ki): 0.09 µM | microsomal CLint [1]: < 10 µL/min/mg | Ki (WNV NS2B-NS3 protease): 2.9 µM | Kinetic solubility (Kinetic solubility): 279 µM | logD (LogD): 0.9 | inhibition at 10 µM (urokinase): 21% | cytotoxicity (Vero E6 cells): no apparent cytotoxicity | CC50 [2]: > 50 µM | EC50 (ZIKV): 4.6 µM

N#C[C@@H](Nc1ccc2c(c1)CNC2)c1cc(Cl)cc2[nH]ncc12 [ASAP-0028904]
Papp A→B (MDR1-MDCK permeability): 1.1 ×10⁻⁶ cm/s | Ki (ZIKV NS2B-NS3 protease; ZIKV NS2B-NS3 Ki): 0.1 µM | Ki (WNV NS2B-NS3 protease): 18 µM | logD (LogD): 0.9

OCC#C[C@@H](Nc1ccc2c(c1)CNC2)c1cc(Cl)cc2[nH]ncc12 [ASAP-0028990]
Papp A→B (MDR1-MDCK permeability): 0.59 ×10⁻⁶ cm/s | Ki (ZIKV NS2B-NS3 protease; ZIKV NS2B-NS3 Ki): 0.99 µM | Ki (WNV NS2B-NS3 protease): 21 µM | logD (LogD): 0.5

CC(C)NC(=O)[C@@H](Nc1ccc2c(c1)CNC2)c1cc(Cl)cc2[nH]ncc12 [ASAP-0029000]
Papp B→A (MDR1-MDCK permeability): 2.2 ×10⁻⁶ cm/s | Ki (ZIKV NS2B-NS3 protease; ZIKV NS2B-NS3 Ki): 0.077 µM | Ki (WNV NS2B-NS3 protease): 0.32 µM | logD (LogD): 0.5

C=CC[C@@H](Nc1ccc2c(c1)CNC2)c1cc(Cl)cc2[nH]ncc12 [ASAP-0029049]
Ki (ZIKV NS2B-NS3 protease; ZIKV NS2B-NS3 Ki): 7.1 µM

Clc1cc(CNc2ccc3c(c2)CNC3)c2cn[nH]c2c1 [ASAP-0029525]
Ki (ZIKV NS2B-NS3 protease; ZIKV NS2B-NS3 Ki): 2.9 µM | Ki (WNV NS2B-NS3 protease): 43 µM | CC50 [2]: 29.8 µM | EC50 (ZIKV): 17.9 µM

CC(C)NC(=O)[C@@H](Nc1ccc2c(c1)CNC2)c1cc(Cl)cc2[nH]ncc12 [ASAP-0029974]
Ki (ZIKV NS2B-NS3 protease; ZIKV NS2B-NS3 Ki): 0.048 µM | Ki (WNV NS2B-NS3 protease): 0.36 µM | logD (LogD): 0.5 | CC50 [2]: > 50 µM | EC50 (ZIKV): 5.7 µM

CC(C)NC(=O)[C@@H](Nc1ccc2c(c1)CN(C)C2)c1cc(Cl)cc2[nH]ncc12 [ASAP-0031156]
Ki (ZIKV NS2B-NS3 protease; ZIKV NS2B-NS3 Ki): 0.48 µM | Ki (WNV NS2B-NS3 protease): 1.6 µM

Cc1cc(C(Nc2ccc3c(c2)CNC3)C(=O)NCC(F)F)cc(C(F)(F)F)c1 (stereo not shown) [ASAP-0031651]
Ki (ZIKV NS2B-NS3 protease; Ki, ZIKV NS2B-NS3): 0.0078 µM | EC50 (ZIKV): 0.45 µM

CC(C)(CO)NC(=O)c1cccc(Cl)c1 [Z68299550]
inhibition in biochemical assay (ZIKV NS2B-NS3 protease; @ 100 μM): n.i.

O=C(Nc1cc(Cl)cc(C(=O)Nc2ccc3c(c2)CNC3)c1)OCc1ccccc1 [ASAP-0020915]
Ligand efficiency (LE) (ZIKV NS2B-NS3 protease): 0.316 | ZIKV NS2B-NS3 pKi (ZIKV NS2B-NS3 protease; library 1, supplement): 6.77 | Ki (ZIKV NS2B-NS3 protease; [3]): 0.164 µM
